How the values were obtained:
Hep G2 cells [1] = assay: Free fatty acids (FFA)-induced lipid accumulation and Oil Red determination; type: cell-based, Human; settings: Oil Red; for attenuated lipid accumulation in the cells: vs control group; for cellular lipid accumulation as compared with the control group: FIG. 2
Method: (§1) Human hepatoma cell line Hep G2 was cultured in Dulbecco's modified Eagle's medium high glucose (DMEM-HG) containing 10% fetal bovine serum, 100 U/ml penicillin and […] streptomycin at 37° C. under 5% CO2 in an incubator.
1×10^5 Hep G2 cells were seeded in a 96-well plate and incubated with serum-free cellular medium containing 1% BSA for 24 hrs. To induce lipid accumulation, the above cells were seeded in a mixture of 0.33 mM palmitic acid and 0.66 mM oleic acid for 24 hrs, which were dissolved in serum-free medium with or without Antrodin. After lipid accumulation and Antrodin treatment, cells were washed with PBS and then fixed by 4% paraformaldehyde for 15 mins at room temperature. The fixed cells were washed with PBS for 5 mins, and then rinsed with 60% isopropanol twice; followed by incubation with 1 ml Oil Red kit for 10 mins. For quantitative analysis of cellular lipids, dye in the cellular lipids were extracted with 0.5 ml of isopropanol, and then measured at 490 nm.

Hep G2 cells [2] = assay: Cell viability test (alamar blue); type: cell-based, Human; settings: concentration less than 100 μg/ml, 72 hrs
Method: as §1
Hepasim® was a mixture from Antrodia cinnamomea mycelia, which was prepared from water or organic solvent extract of Antrodia cinnamomea mycelia. The extract of Antrodia cinnamomea mycelia comprised Antrodin B-E. 5×10^3 Hep G2 cells were seeded in a 96-well plate for 24 hrs, and then incubated with different concentrations of Hepasim®, Antrodin B, Antrodin C and Antrodin D for 72 hrs. After treatment, cells were incubated with alamar blue (10%, w/v) for 3 hrs, and then was read at […]. Cell viability was calculated by [(OD570−OD600)test/(OD570−OD600)control]×100.

[3] = system: C57BL/6J (B6) mice on high fat diet; assay: High fat diet mice, treating process (20 weeks, dosing 11th to 20th week); type: in vivo; design: Malondiadehyde in liver: unit not given here; settings: for body weight: 11th to 20th week, high fat diet 20 weeks; for reduction of body weight increasing rate as compared with the high fat diet group: at the end of 20 weeks; for ALT / AST / TC / TG / attenuated the increased ALT as compared with the high fat diet group / attenuated the increased AST as compared with the high fat diet group / attenuated the increased TC as compared with the high fat diet group / attenuated the increased TG as compared with the high fat diet group: serum; for ALT / AST / TC / TG / MDA level increasing rate in liver / Malondiadehyde in liver / Plasma insulin / blood glucose / liver hypertrophy / liver weight / plasma insulin level increasing rate was reduced by / Plasma insulin increasing rate / body weight increasing rate / lipid droplets in the liver, hematoxylin-eosin staining of liver sections / MDA level increasing rate was reduced by / liver appearance: pale color (phenomenon of fatty liver) / attenuated the increased ALT as compared with the high fat diet group / attenuated the increased AST as compared with the high fat diet group / attenuated the increased TC as compared with the high fat diet group / attenuated the increased TG as compared with the high fat diet group / attenuated the increased blood sugar as compared with the high fat diet group: treating process; for Plasma insulin increasing rate / body weight increasing rate: relative to control group; for lipid droplets in the liver, hematoxylin-eosin staining of liver sections: FIG. 5; for MDA level increasing rate was reduced by: liver; for liver appearance: pale color (phenomenon of fatty liver): FIG. 4
Method: 2.1 8-week-old male C57BL/6J (B6) mice were used, which were purchased from the National Laboratory Animal Center (Taipei, Taiwan). All animals were maintained at an animal room at a temperature of 23±2° C., and 12 hrs light/12 hrs dark cycle.
According to the “Healthy food of liver health effects assessment” (Taiwan Food and Drug Administration, Taiwan), all 8-week test mice were randomized into a control group, a high fat diet group, and test (high fat diet with different dosage of Hepasim®, Antrodin B or Antrodin C) groups. Each group contained 3-4 mice.
The control group was given 20 weeks of normal diet, and all other groups were given 20 weeks of high fat diet. […] Body weights of the mice in each group were recorded weekly. At the end of 20 weeks, all mice were sacrificed by CO2 overdose. At the time of death of the mouse, blood was collected from the heart of the mouse. To separate the serum, whole blood was centrifuged in a refrigerated centrifuge at 15,700×g at 4° C. for 5 minutes. Livers were removed from the mice, and then rinsed in ice-cold saline. Liver samples were divided for various assays and histological assessment.
Stored liver samples (0.1 g) were homogenized in 1 ml PBS, and then was centrifuged in a refrigerated centrifuge at 15,700×g at 4° C. for 5 minutes to remove pellets. The levels of aspartate aminotransferase (AST), alanine aminotransferase (ALT), total cholesterol (TC) and total triglyceride (TG) of the serum and the liver were measured by corresponding detection kits (Randox). Blood sugar in whole blood was detected by blood sugar machine (Roche). Plasma insulin was detected by Insulin mouse ELISA kit (Invitrogen). Malondialdehyde (MDA) level in liver was measured by using Lipid Peroxidation Assay Kit (Colorimetric/Fluorometric) (abcam, #ab118977). Liver samples were divided for various assays and histological assessment.
The livers were removed from the mice, and then fixed in 10% neural formalin. Liver samples were dehydrated by placing in ethanol at different concentrations (30, 50, 70, 95, 99.5%) and xylene. Finally, liver samples were embedded in paraffin section. For hematoxylin-eosin staining, the liver tissue sections were placed in xylene for 30 minutes for dewaxing, and then sequentially placed in 99.5% ethanol for 10 minutes, 90% ethanol for 5 minutes, 70% ethanol for 1 minute, 50% ethanol for 1 minute and 30% ethanol for 1 minutes for rehydration, and then soaked in distilled water for 10 minutes. To stained nuclei, the samples were soaked in hematoxylin solution for 4 minutes, and then soaked in distilled water for several minutes, followed by soaking in eosin solution for 2 minutes to stain cytoplasm, and then washed in distilled water for 10 minutes. Finally, samples were sequentially placed in 90% ethanol for 2 minutes, 99.5% ethanol for 2 minutes and xylene for 20 minutes, and then mounted by mounting medium.
All results were expressed as mean±SD. Significant differences were analyzed with two-tailed Student's t-test. P<0.05 represents the statistical difference between two groups.

[4] = "10%" Antrodin (so in the source)
[5] = "30%" Antrodin (so in the source)
[6] = treated with "10%" Antrodin (so in the source)
[7] = treated with "30%" Antrodin (so in the source)

SMILES: CC(C)=CCOc1ccc([C@H]2C(=O)N(O)C(=O)[C@@H]2CC(C)C)cc1 (relative stereo) [Antrodin D, 3R*,4S*-1-hydroxy-3-isobutyl-4-[4-(3-methyl-2-butenyloxy)phenyl]pyrrolidine-2,5-dione]
- attenuated lipid accumulation in the cells (Hep G2 cells [1]; 100 μg/ml): 18.6%
- cellular lipid accumulation as compared with the control group (Hep G2 cells [1]): significantly reduced
- cytotoxicity to Hep G2 cells (Hep G2 cells [2]): no cytotoxicity

SMILES: CC(C)=CCOc1ccc(C2=C(CC(C)C)C(=O)NC2=O)cc1 [Antrodin B, 3-isobutyl-4-[4-(3-methyl-2-butenyloxy)phenyl]-1H-pyrrol-2,5-dione]
- attenuated lipid accumulation in the cells (Hep G2 cells [1]; 10 μg/ml): 12.8%
- attenuated lipid accumulation in the cells (Hep G2 cells [1]; 100 μg/ml): 9.3%
- cellular lipid accumulation as compared with the control group (Hep G2 cells [1]): significantly reduced
- cytotoxicity to Hep G2 cells (Hep G2 cells [2]): no cytotoxicity
- body weight ([3]; 10 mg/Kg oral gavage every day): 37.14 ± 5.18 g
- reduction of body weight increasing rate as compared with the high fat diet group ([3]; 10 mg/Kg): 14%
- ALT ([3]; 10 mg/Kg): 29.36 ± 6.17 U/l
- AST ([3]; 10 mg/Kg): 44.39 ± 7.06 U/l
- TC ([3]; 10 mg/Kg): 266.61 ± 25.99 mg/dL
- TG ([3]; 10 mg/Kg): 189.57 ± 9.35 mg/dL
- MDA level increasing rate in liver ([3]; 10 mg/Kg): 202.8%
- Malondiadehyde in liver ([3]; 10 mg/Kg): 2.15 ± 0.58
- Plasma insulin ([3]; 10 mg/Kg): 0.99 ± 0.41 ng/mL
- blood glucose ([3]; 10 mg/Kg): 367.20 ± 34.40 mg/dL
- liver hypertrophy ([3]; 10 mg/Kg): significantly inhibited
- liver weight ([3]; 10 mg/Kg): 1.39 ± 0.33 g
- plasma insulin level increasing rate was reduced by ([3]; 10 mg/Kg): 223.6%
- Plasma insulin increasing rate ([3]; 10 mg/Kg): 80%
- body weight increasing rate ([3]; 10 mg/Kg): 21.1%
- body weight ([3]; 30 mg/Kg oral gavage every day): 41.82 ± 2.61 g
- ALT ([3]; 30 mg/Kg): 29.38 ± 11.45 U/l
- AST ([3]; 30 mg/Kg): 53.64 ± 9.99 U/l
- TC ([3]; 30 mg/Kg): 287.73 ± 48.26 mg/dL
- TG ([3]; 30 mg/Kg): 187.77 ± 6.53 mg/dL
- MDA level increasing rate in liver ([3]; 30 mg/Kg): 97.2%
- Malondiadehyde in liver ([3]; 30 mg/Kg): 1.4 ± 0.56
- Plasma insulin ([3]; 30 mg/Kg): 1.84 ± 0.93 ng/mL
- blood glucose ([3]; 30 mg/Kg): 389.00 ± 41.63 mg/dL
- liver weight ([3]; 30 mg/Kg): 1.5 ± 0.25 g
- plasma insulin level increasing rate was reduced by ([3]; 30 mg/Kg): 69.1%
- Plasma insulin increasing rate ([3]; 30 mg/Kg): 234.5%
- body weight increasing rate ([3]; 30 mg/Kg): 36.3%
- lipid droplets in the liver, hematoxylin-eosin staining of liver sections [3, 4]: significantly attenuated
- lipid droplets in the liver, hematoxylin-eosin staining of liver sections [3, 5]: significantly attenuated
- MDA level increasing rate was reduced by [3, 6]: 24.8%
- MDA level increasing rate was reduced by [3, 7]: 129.6%
- liver appearance: pale color (phenomenon of fatty liver) [3]: not observed

SMILES: CC(C)=CCOc1ccc(C2=C(CC(C)C)C(=O)N(O)C2=O)cc1 [Antrodin C, 3-isobutyl-4-[4-(3-methyl-2-butenyloxy)phenyl]-1H-pyrrol-1-ol-2,5-dione]
- attenuated lipid accumulation in the cells (Hep G2 cells [1]; 10 μg/ml): 20.6%
- attenuated lipid accumulation in the cells (Hep G2 cells [1]; 100 μg/ml): 24.1%
- cellular lipid accumulation as compared with the control group (Hep G2 cells [1]): significantly reduced
- cytotoxicity to Hep G2 cells (Hep G2 cells [2]): no cytotoxicity
- body weight ([3]; 10 mg/Kg oral gavage every day): 40.06 ± 4.74 g
- reduction of body weight increasing rate as compared with the high fat diet group ([3]; 10 mg/Kg): 4.5%
- ALT ([3]; 10 mg/Kg): 22.99 ± 5.15 U/l
- AST ([3]; 10 mg/Kg): 38.17 ± 5.53 U/l
- TC ([3]; 10 mg/Kg): 189.36 ± 58.12 mg/dL
- TG ([3]; 10 mg/Kg): 179.28 ± 15.54 mg/dL
- attenuated the increased ALT as compared with the high fat diet group ([3]; 10 mg/Kg): ~12.3%
- attenuated the increased AST as compared with the high fat diet group ([3]; 10 mg/Kg): ~39.35%
- attenuated the increased TC as compared with the high fat diet group ([3]; 10 mg/Kg): ~66.83%
- attenuated the increased TG as compared with the high fat diet group ([3]; 10 mg/Kg): ~11.57%
- MDA level increasing rate in liver ([3]; 10 mg/Kg): 140.8%
- Malondiadehyde in liver ([3]; 10 mg/Kg): 1.71 ± 0.59
- Plasma insulin ([3]; 10 mg/Kg): 1.77 ± 0.85 ng/mL
- attenuated the increased blood sugar as compared with the high fat diet group ([3]; 10 mg/Kg): about 34.78%
- blood glucose ([3]; 10 mg/Kg): 351.80 ± 85.00 mg/dL
- liver hypertrophy ([3]; 10 mg/Kg): significantly inhibited
- liver weight ([3]; 10 mg/Kg): 1.06 ± 0.25 g
- plasma insulin level increasing rate was reduced by ([3]; 10 mg/Kg): 81.8%
- Plasma insulin increasing rate ([3]; 10 mg/Kg): 221.8%
- body weight increasing rate ([3]; 10 mg/Kg): 30.6%
- body weight ([3]; 30 mg/Kg oral gavage every day): 37.50 ± 4.80 g
- reduction of body weight increasing rate as compared with the high fat diet group ([3]; 30 mg/Kg): 12.9%
- ALT ([3]; 30 mg/Kg): 17.61 ± 3.90 U/l
- AST ([3]; 30 mg/Kg): 32.33 ± 2.85 U/l
- TC ([3]; 30 mg/Kg): 171.86 ± 40.58 mg/dL
- TG ([3]; 30 mg/Kg): 170.63 ± 13.22 mg/dL
- attenuated the increased ALT as compared with the high fat diet group ([3]; 30 mg/Kg): ~48.96%
- attenuated the increased AST as compared with the high fat diet group ([3]; 30 mg/Kg): ~74.17%
- attenuated the increased TC as compared with the high fat diet group ([3]; 30 mg/Kg): ~86.26%
- attenuated the increased TG as compared with the high fat diet group ([3]; 30 mg/Kg): ~21.96%
- MDA level increasing rate in liver ([3]; 30 mg/Kg): 90.1%
- Malondiadehyde in liver ([3]; 30 mg/Kg): 1.35 ± 0.57
- Plasma insulin ([3]; 30 mg/Kg): 1.25 ± 0.71 ng/mL
- attenuated the increased blood sugar as compared with the high fat diet group ([3]; 30 mg/Kg): about 79.48%
- blood glucose ([3]; 30 mg/Kg): 298.60 ± 38.93 mg/dL
- liver hypertrophy ([3]; 30 mg/Kg): significantly inhibited
- liver weight ([3]; 30 mg/Kg): 1.05 ± 0.24 g
- plasma insulin level increasing rate was reduced by ([3]; 30 mg/Kg): 176.3%
- Plasma insulin increasing rate ([3]; 30 mg/Kg): 127.3%
- body weight increasing rate ([3]; 30 mg/Kg): 22.2%
- lipid droplets in the liver, hematoxylin-eosin staining of liver sections [3, 4]: significantly attenuated
- lipid droplets in the liver, hematoxylin-eosin staining of liver sections [3, 5]: significantly attenuated
- MDA level increasing rate was reduced by [3, 6]: 86%
- MDA level increasing rate was reduced by [3, 7]: 136.7%
- liver appearance: pale color (phenomenon of fatty liver) [3]: not observed

Source: US11510902B2, “Method for preventing or treating non-alcoholic fatty liver disease by antrodins” (Simpson Biotech Co., Ltd., priority 2019, dated 2022)
